From ChEMBL document CHEMBL5120826, “Effects of β-lapachone and β-nor-lapachone on multidrug efflux transporters and biofilms of Candida glabrata” (Bioorg Med Chem, 2022)
≈ marks a conversion by molar mass, not a printed value. Calls of active or inactive are those of the source. The rule behind the calls is not given here.

What was measured:
[1] = system: Saccharomyces cerevisiae; experiment: Antifungal activity against fluconazole resistant Saccharomyces cerevisiae overexpressing CgCdr2p transporter assessed as reduction in fungal growth incubated for 48 hrs by checkboard assay based microplate reader analysis; format: functional
[2] = system: Nakaseomyces glabratus; experiment: Induction of morphological changes in fluconazole resistant Candida glabrata 109 overexpressing CgCdr1p transporter assessed as decrease in cellular density at 200 ug/ml by calcofluor white dye based confocal laser scanning microscopy; format: functional, organism-based; conditions: dose 200.0 µg/ml
[3] = system: Nakaseomyces glabratus; experiment: Antifungal activity against fluconazole resistant Candida glabrata 109 overexpressing CgCdr1p transporter assessed as reduction in fungal growth incubated for 48 hrs in presence of fluconazole by serial dilution method; format: functional, organism-based
[4] = system: Saccharomyces cerevisiae; experiment: Antifungal activity against fluconazole resistant Saccharomyces cerevisiae overexpressing CgCdr2p transporter assessed as reduction in fungal growth incubated for 48 hrs in presence of fluconazole by serial dilution method; format: functional, organism-based
[5] = system: Nakaseomyces glabratus; experiment: Indifferent antifungal activity against fluconazole sensitive Candida glabrata ATCC 2001 assessed as fractional inhibitory concentration index incubated for 48 hrs by checkboard assay based microplate reader analysis; format: functional
[6] = system: Nakaseomyces glabratus; experiment: Additive antifungal activity against fluconazole resistant Candida glabrata 109 overexpressing CgCdr1p transporter assessed as reduction in fungal growth incubated for 48 hrs in presence of fluconazole by checkboard assay based microplate reader analysis; format: functional
[7] = Inhibition of fluconazole sensitive Candida glabrata ATCC 2001 […] cell adhesion to polystyrene at 200 ug/ml incubated for 90 mins by MTT assay; format: functional; conditions: Nakaseomyces glabratus, ATCC 2001, 1.5 h
[8] = system: Saccharomyces cerevisiae; experiment: Synergistic antifungal activity against fluconazole resistant Saccharomyces cerevisiae overexpressing CgCdr2p transporter assessed as fractional inhibitory concentration index incubated for 48 hrs by checkboard assay based microplate reader analysis; format: functional
[9] = system: Nakaseomyces glabratus; experiment: Additive antifungal activity against fluconazole resistant Candida glabrata 109 overexpressing CgCdr1p transporter assessed as fractional inhibitory concentration index incubated for 48 hrs by checkboard assay based microplate reader analysis; format: functional
[10] = system: Saccharomyces cerevisiae; experiment: Induction of ROS generation in fluconazole resistant Saccharomyces cerevisiae overexpressing CgCdr1p transporter assessed as fold increase in ROS level incubated for 90 mins by DCFH-DA dye based fluorescence assay; format: functional; conditions: 1.5 h
[11] = system: Saccharomyces cerevisiae; experiment: Antifungal activity against fluconazole resistant Saccharomyces cerevisiae overexpressing CgCdr1p transporter assessed as reduction in fungal growth incubated for 48 hrs in presence of fluconazole by serial dilution method; format: functional, organism-based
[12] = system: Nakaseomyces glabratus; experiment: Antibiofilm activity against fluconazole sensitive Candida glabrata ATCC 2001 assessed as inhibition of biofilm formation at 200 ug/ml incubated for 48 hrs; format: functional
[13] = system: Nakaseomyces glabratus; experiment: Induction of morphological changes in fluconazole resistant Candida glabrata 109 overexpressing CgCdr1p transporter assessed as decrease in number of cells within biofilm at 200 ug/ml incubated for 48 hrs by SEM analysis; format: functional, organism-based; conditions: dose 200.0 µg/ml
[14] = system: Nakaseomyces glabratus; experiment: Indifferent antifungal activity against fluconazole resistant Candida glabrata 109 overexpressing CgCdr1p transporter assessed as reduction in fungal growth incubated for 48 hrs in presence of fluconazole by checkboard assay based microplate reader analysis; format: functional
[15] = system: Nakaseomyces glabratus; experiment: Additive antifungal activity against fluconazole resistant Candida glabrata 109 overexpressing CgCdr1p transporter assessed as fractional inhibitory concentration incubated for 48 hrs in presence of fluconazole by checkboard assay based microplate reader analysis; format: functional
[16] = system: Nakaseomyces glabratus; experiment: Indifferent antifungal activity against fluconazole sensitive Candida glabrata ATCC 2001 assessed as reduction in fungal growth incubated for 48 hrs in presence of fluconazole by checkboard assay based microplate reader analysis; format: functional
[17] = system: Nakaseomyces glabratus; experiment: Induction of morphological changes in fluconazole resistant Candida glabrata 109 overexpressing CgCdr1p transporter assessed as decrease in biofilm thickness at 200 ug/ml by calcofluor white dye based confocal laser scanning microscopy; format: functional, organism-based; conditions: dose 200.0 µg/ml
[18] = system: Nakaseomyces glabratus; experiment: Antifungal activity against fluconazole resistant Candida glabrata 109 overexpressing CgCdr1p transporter assessed as reduction in fungal growth incubated for 48 hrs by checkboard assay based microplate reader analysis; format: functional
[19] = system: Nakaseomyces glabratus; experiment: Additive antifungal activity against fluconazole resistant Candida glabrata 109 overexpressing CgCdr1p transporter assessed as reduction in fungal growth incubated for 48 hrs in presence of lapachone by checkboard assay based microplate reader analysis; format: functional
[20] = system: Saccharomyces cerevisiae; experiment: Inhibition of fluconazole resistant Saccharomyces cerevisiae overexpressing CgCdr1p transporter ATPase activity assessed as reduction in inorganic phosphate release in presence of ATP incubated for 1 hr by Fiske and Sub barrow method; conditions: concentration not given here
[21] = system: Nakaseomyces glabratus; experiment: Antibiofilm activity against fluconazole resistant Candida glabrata 109 overexpressing CgCdr1p transporter assessed as inhibition of biofilm formation at 200 ug/ml incubated for 48 hrs; format: functional
[22] = system: Saccharomyces cerevisiae; experiment: Induction of ROS generation in fluconazole resistant Saccharomyces cerevisiae overexpressing CgCdr2p transporter assessed as fold increase in ROS level incubated for 90 mins by DCFH-DA dye based fluorescence assay; format: functional; conditions: 1.5 h
[23] = system: Saccharomyces cerevisiae; experiment: Antifungal activity against fluconazole resistant Saccharomyces cerevisiae overexpressing CgCdr1p transporter assessed as reduction in fungal growth at lower concentration incubated for 48 hrs by serial dilution method; format: functional, organism-based
[24] = system: Nakaseomyces glabratus; experiment: Indifferent antifungal activity against fluconazole sensitive Candida glabrata ATCC 2001 assessed as fractional inhibitory concentration incubated for 48 hrs in presence of lapachone by checkboard assay based microplate reader analysis; format: functional
[25] = system: Nakaseomyces glabratus; experiment: Effect on efflux pump function in fluconazole resistant Candida glabrata 109 overexpressing CgCdr1p transporter assessed as accumulation of Nile red fluorescence incubated for 1 hr by fluorescence based assay; format: functional
[26] = system: Nakaseomyces glabratus; experiment: Antifungal activity against fluconazole sensitive Candida glabrata ATCC 2001 assessed as reduction in fungal growth incubated for 48 hrs by checkboard assay based microplate reader analysis; format: functional
[27] = system: Nakaseomyces glabratus; experiment: Additive antifungal activity against fluconazole resistant Candida glabrata 109 overexpressing CgCdr1p transporter assessed as fractional inhibitory concentration incubated for 48 hrs in presence of lapachone by checkboard assay based microplate reader analysis; format: functional
[28] = system: Saccharomyces cerevisiae; experiment: Effect on efflux pump function in fluconazole resistant Saccharomyces cerevisiae overexpressing CgCdr2p transporter assessed as accumulation of Nile red fluorescence incubated for 1 hr by fluorescence based assay; format: functional
[29] = system: Nakaseomyces glabratus; experiment: Induction of ROS generation in fluconazole resistant Candida glabrata 109 overexpressing CgCdr1p assessed as fold increase in ROS level incubated for 90 mins by DCFH-DA dye based fluorescence assay; format: functional; conditions: 1.5 h
[30] = system: Nakaseomyces glabratus; experiment: Antibiofilm activity against fluconazole resistant Candida glabrata 109 overexpressing CgCdr1p transporter assessed as reduction in metabolic activity at highest concentration incubated for 48 hrs; format: functional; set-up: scale not given: the % may be the effect or the level left
[31] = system: Nakaseomyces glabratus; experiment: Indifferent antifungal activity against fluconazole resistant Candida glabrata 109 overexpressing CgCdr1p transporter assessed as fractional inhibitory concentration index incubated for 48 hrs by checkboard assay based microplate reader analysis; format: functional
[32] = system: Saccharomyces cerevisiae; experiment: Antifungal activity against fluconazole resistant Saccharomyces cerevisiae overexpressing CgCdr1p transporter assessed as reduction in fungal growth incubated for 48 hrs by checkboard assay based microplate reader analysis; format: functional
[33] = system: Nakaseomyces glabratus; experiment: Indifferent antifungal activity against fluconazole sensitive Candida glabrata ATCC 2001 assessed as reduction in fungal growth incubated for 48 hrs in presence of lapachone by checkboard assay based microplate reader analysis; format: functional
[34] = system: Nakaseomyces glabratus; experiment: Indifferent antifungal activity against fluconazole resistant Candida glabrata 109 overexpressing CgCdr1p transporter assessed as reduction in fungal growth incubated for 48 hrs by checkboard assay based microplate reader analysis; format: functional
[35] = system: Nakaseomyces glabratus; experiment: Indifferent antifungal activity against fluconazole sensitive Candida glabrata ATCC 2001 assessed as fractional inhibitory concentration incubated for 48 hrs in presence of fluconazole by checkboard assay based microplate reader analysis; format: functional

Compound	MIC [1]	Activity [2]	Activity [3]	Activity [4]	fractional inhibitory concentration index (FICI) [5]	MIC [6]	inhibition at 200 µg/mL [7]	fractional inhibitory concentration index (FICI) [8]	fractional inhibitory concentration index (FICI) [9]	fold change (FC) [10]	Activity [11]	inhibition at 200 µg/mL [12]	Activity [13]	MIC [14]	FIC [15]	MIC [16]	Activity [17]	MIC [18]	MIC [19]	inhibition [20]	other results
CC1(C)CCC2=C(O1)c1ccccc1C(=O)C2=O [LAPACHONE]	25 µg/mL (≈ 103 µM)	Active	Active	Active	2	31.2 µg/mL	55%	0.31	0.625	3	Active	95%	Active	> 1000 µg/mL	0.125 µg/mL	15.6 µg/mL	Active	25 µg/mL (≈ 103 µM)	12.5 µg/mL	76%	inhibition at 200 µg/mL [21]: 72%; fold change (FC) [22]: 3; Activity [23]: Active; FIC [24]: 1 µg/mL; Activity [25]: 35%; MIC [26]: 12.5 µg/mL (≈ 51.6 µM); FIC [27]: 0.5 µg/mL; Activity [28]: 50%; fold change (FC) [29]: 5; Activity [30]: 88%; fractional inhibitory concentration index (FICI) [31]: 2; MIC [32]: 100 µg/mL (≈ 413 µM); MIC [33]: 12.5 µg/mL; MIC [34]: > 200 µg/mL; FIC [35]: 1 µg/mL
CC1(C)CC2=C(O1)c1ccccc1C(=O)C2=O [NOR-BETA-LAPACHONE]	25 µg/mL (≈ 110 µM)	Active	Active	Active	2	31.2 µg/mL	28%	0.37	0.625	3	Active	70%	Active	> 1000 µg/mL	0.125 µg/mL	15.6 µg/mL	Active	100 µg/mL (≈ 438 µM)	50 µg/mL	25%	inhibition at 200 µg/mL [21]: 48%; fold change (FC) [22]: 3; Activity [23]: Active; FIC [24]: 1 µg/mL; Activity [25]: 100%; MIC [26]: 15.6 µg/mL (≈ 68.3 µM); FIC [27]: 0.5 µg/mL; Activity [28]: 50%; fold change (FC) [29]: 5; Activity [30]: 46%; fractional inhibitory concentration index (FICI) [31]: 2; MIC [32]: 50 µg/mL (≈ 219 µM); MIC [33]: 100 µg/mL; MIC [34]: > 200 µg/mL; FIC [35]: 1 µg/mL
